One assay has as its target T1, Leucine aminopeptidase (Plasmodium falciparum 3D7, UniProt Q8IL11).
T1 sequence (Q8IL11 whole entry): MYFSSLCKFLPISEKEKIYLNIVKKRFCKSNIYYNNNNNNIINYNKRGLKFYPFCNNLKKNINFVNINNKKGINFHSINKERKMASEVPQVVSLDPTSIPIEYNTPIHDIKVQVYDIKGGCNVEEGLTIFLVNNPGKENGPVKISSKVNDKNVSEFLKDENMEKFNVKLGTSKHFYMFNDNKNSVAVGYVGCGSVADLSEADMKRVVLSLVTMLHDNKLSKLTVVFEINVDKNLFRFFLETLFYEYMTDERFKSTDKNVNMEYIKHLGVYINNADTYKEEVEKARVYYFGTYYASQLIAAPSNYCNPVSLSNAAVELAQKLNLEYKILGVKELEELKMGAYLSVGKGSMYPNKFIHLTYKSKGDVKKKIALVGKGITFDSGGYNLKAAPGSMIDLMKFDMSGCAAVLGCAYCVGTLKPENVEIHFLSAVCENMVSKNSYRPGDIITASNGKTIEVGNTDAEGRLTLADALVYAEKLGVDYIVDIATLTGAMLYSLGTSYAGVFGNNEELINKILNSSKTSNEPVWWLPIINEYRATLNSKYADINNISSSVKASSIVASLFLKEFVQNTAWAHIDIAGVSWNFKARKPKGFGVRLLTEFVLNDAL
Briefly: P. falciparum M17LAP inhibitors, primary screen, biochemical, fluorogenic H-Leu-NHMec substrate, 1536-well (AID 1619). In kind it is functional.

In assay [1] the target is T2, Polyadenylate-binding protein 1 (Homo sapiens, UniProt P11940). The assay is described as follows: MLLE domain peptide-binding blockers, IC50 – biochemical, fluorescence polarization, FITC-PAM2 peptide, dose response (AID 602259). In kind it is functional. Particulars: read-out: IC50_Mean.
T2 sequence (P11940 whole entry, the tested form may be a part): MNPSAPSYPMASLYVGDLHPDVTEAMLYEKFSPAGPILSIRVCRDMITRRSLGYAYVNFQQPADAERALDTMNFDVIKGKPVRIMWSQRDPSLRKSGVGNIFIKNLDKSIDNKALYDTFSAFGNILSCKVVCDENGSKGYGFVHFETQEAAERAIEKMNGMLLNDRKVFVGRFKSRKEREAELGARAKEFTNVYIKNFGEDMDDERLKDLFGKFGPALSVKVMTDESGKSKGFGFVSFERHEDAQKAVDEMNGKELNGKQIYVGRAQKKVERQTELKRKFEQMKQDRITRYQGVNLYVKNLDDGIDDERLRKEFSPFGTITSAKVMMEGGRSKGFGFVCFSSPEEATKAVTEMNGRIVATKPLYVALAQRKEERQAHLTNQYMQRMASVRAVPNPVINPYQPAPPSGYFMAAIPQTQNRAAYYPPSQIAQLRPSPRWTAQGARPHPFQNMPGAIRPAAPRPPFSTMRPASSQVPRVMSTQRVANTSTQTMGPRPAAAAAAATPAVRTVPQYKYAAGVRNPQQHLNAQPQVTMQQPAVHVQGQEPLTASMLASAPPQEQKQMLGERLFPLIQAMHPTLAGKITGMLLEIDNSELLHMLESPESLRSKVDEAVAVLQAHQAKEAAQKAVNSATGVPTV
Assay [2] deals with T2, Polyadenylate-binding protein 1. The assay is described as follows: MLLE binding blockers, Cy5 peptide tracer – biochemical, fluorescence polarization, Cy5-PAM2 peptide, secondary, miRNA deadenylation inhibitor project, dose response (AID 602260). In kind it is functional. Particulars: read-out: IC50_Mean. A general note: Fluorescence polarisation rises when a labelled molecule tumbles more slowly, as on binding a larger partner.

A short description of assay [3]: Luminescence Cell-Based Dose Response HTS to Identify Inhibitors of 5'UTR Stem-Loop Driven Prion Protein mRNA Translation in H4 Neuroglioblastoma Cells. [Related pubchem assays: 1827 (Project Summary), 1813 (Primary HTS)]. Format: functional.
The nature of assay [4]: luciferase reporter signal suppression in cells – H4 neuroglioma cells, luminescence, dose response (AID 1990). In kind it is functional, cell-based.
A short description of assay [5]: alpha-synuclein stem-loop luciferase translation blockers – H4 neuroglioma cells, luminescence, confirmation (AID 1988). In kind it is functional, cell-based.
Assay [6] deals with Induced myeloid leukemia cell differentiation protein Mcl-1 (Homo sapiens, UniProt Q07820). Format: functional.
Induced myeloid leukemia cell differentiation protein Mcl-1, sequence (Q07820 whole entry): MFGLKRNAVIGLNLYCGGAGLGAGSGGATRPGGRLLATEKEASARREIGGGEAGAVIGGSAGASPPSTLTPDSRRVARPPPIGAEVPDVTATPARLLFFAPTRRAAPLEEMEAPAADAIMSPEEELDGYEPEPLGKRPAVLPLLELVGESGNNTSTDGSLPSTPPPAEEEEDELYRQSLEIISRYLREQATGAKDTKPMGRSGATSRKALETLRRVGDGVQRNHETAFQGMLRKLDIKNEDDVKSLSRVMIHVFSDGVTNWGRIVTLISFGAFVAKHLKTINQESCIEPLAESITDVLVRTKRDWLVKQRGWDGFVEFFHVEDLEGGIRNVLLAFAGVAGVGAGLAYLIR
Assay [7] concerns the target Glyceraldehyde-3-phosphate dehydrogenase (Homo sapiens, UniProt P04406).
Assay [8] has as its system BJ. Briefly: BJ-TERT fibroblast viability loss – cell-based, RAS-independent, luminescence, dose response (AID 1933). Particulars: Homo sapiens. Format: functional.
Assay [9] has as its system BJ. The assay is described as follows: cells. Format: functional, cell-based. As to conditions: Homo sapiens.
For assay [10], the system named is BJ. Briefly: BJ-TERT-LT-ST fibroblast viability loss – cell-based, RAS-independent, luminescence, dose response (AID 1935).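 Further: BJ fibroblasts immortalized with TERT plus LT and ST oncogenes.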 In kind it is functional. Particulars: Homo sapiens.
The nature of assay [11]: DRD fibroblast viability loss – cell-based, non-viral oncogenic, luminescence, dose response (AID 1934). Format: functional. Particulars: Homo sapiens.

Our source for the IC50 and EC50 values is ChEMBL document CHEMBL1201862, “PubChem BioAssay data set” (2004).

Molecules are shown by their SMILES. Activity calls are given as the source filed them. For most assays here, no stated cut-off is given here; in the data, actives have a measured EC50 and inactives only a lower limit. A value given as a limit tells only on which side of the number the result lay.

In general, EC50 refers to the concentration giving half of the maximal effect.

Glyceraldehyde-3-phosphate dehydrogenase, sequence (P04406 whole entry): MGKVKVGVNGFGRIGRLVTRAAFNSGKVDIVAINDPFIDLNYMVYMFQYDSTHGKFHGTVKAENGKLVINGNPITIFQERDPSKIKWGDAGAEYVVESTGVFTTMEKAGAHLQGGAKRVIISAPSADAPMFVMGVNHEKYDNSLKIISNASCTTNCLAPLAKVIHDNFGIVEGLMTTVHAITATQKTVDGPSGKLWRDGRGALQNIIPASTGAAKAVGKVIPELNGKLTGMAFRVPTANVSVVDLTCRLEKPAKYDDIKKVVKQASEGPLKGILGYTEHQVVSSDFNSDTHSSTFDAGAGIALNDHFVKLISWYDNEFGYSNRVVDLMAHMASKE

Turning to `Cc1cc(C(=O)COC(=O)c2ccc[nH]c2=O)c(C)n1C1CC1`, the IC50 on Leucine aminopeptidase is 13.3 µM (active).

`O=C(NC(=S)NNS(=O)(=O)c1ccccc1)c1ccccc1[N+](=O)[O-]`: the values for the IC50 (in assay [1]; in assay [2]; at Leucine aminopeptidase) were > 66 µM (inactive), > 66 µM (inactive) and 29.9 µM (active), respectively.

Turning to `CC(C)c1ccc2[nH]c(O)c(N=NC(=O)c3cccc(S(=O)(=O)Nc4ccc(Cl)cc4)c3)c2c1`, the EC50 in assay [3], in [4] and in assay [5] was > 120 µM (not active) in each case.

For `Cc1cc2nc(-c3ccc(SCC(=O)N4CCN(C(=O)c5ccco5)CC4)nc3)[nH]c2cc1C`, the IC50 in assay [6] is 3.63 µM (active).

As for `O=C(Cc1ccc(N2CCNC2=O)cc1)N1CCCC(Nc2cccc(F)c2)C1` (stereo unspecified), the figures for the EC50 in assay [3], in [4] and in assay [5] were 2.72 µM (active), 9.37 µM (inconclusive) and 5.11 µM (active), respectively.

With `CCOc1ccc(NC(=O)CSc2nnnn2CC(=O)O)cc1`, at Leucine aminopeptidase, the IC50 was 6.69 µM (active).

In the case of `O=C(O)CCCCCN1C(=O)/C(=C\c2ccc(-c3ccc(Cl)cc3)o2)SC1=S`, the IC50 in [6] was 1.27 µM (active).

Consider `COc1cccc(N2CCN(C3=C(Cl)C(=O)N(c4ccc([N+](=O)[O-])cc4)C3=O)CC2)c1`, for which, in assay [7], the IC50 was > 50 µM (inconclusive).

As for `O=C(Cn1nnc2ccccc2c1=O)Nc1ccc2c(c1)CCC2`, the IC50 at Leucine aminopeptidase is 1.51 µM (active).

Turning to `Cc1ccc(NC(=O)CCc2c[nH]c3ccccc23)nc1`, the EC50 in the assay on BJ [8] was 12.6 µM (active); with BJ [9], 50.4 µM (active); in the assay with BJ [10], > 150 µM (inconclusive); in assay [11], 17.7 µM (active).

As for `COc1cc(/C=C2\N=C(c3ccccc3)NNC2=O)cc(OC)c1OC`, the figures for the EC50 in assay [3], in [4] and in assay [5] were 9.91 µM (active), > 120 µM (not active) and 8.22 µM (active), respectively.

`O=C(CN1C(=O)c2ccccc2S1(=O)=O)N1CCc2ccccc2C1`: the figures for the EC50 in assay [3], in [4] and in assay [5] were 21.4 µM (active), 25.5 µM (active) and 12.6 µM (active), respectively.

Regarding `O=C(O)c1ccc(N/N=C/C2=C(N3CCOCC3)C(=C\c3ccccc3)/CC2)cc1`, the IC50 in assay [6] is 4.44 µM (active).

`CC(/C=N/NC(=O)c1cc(-c2ccc(Cl)cc2)nc2ccccc12)=C\c1ccco1`: the EC50 in the assay with BJ [8] was 2.07 µM (active); in the assay with BJ [9], 2.73 µM (active); in the assay with BJ [10], 22.4 µM (inconclusive); in assay [11], 2.58 µM (inconclusive).

Regarding `COc1cccc(Nc2ncnc3[nH]cnc23)c1`, the IC50 at Leucine aminopeptidase is 95.1 µM (active).
